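Exposure lasted 48 hours, with cells grown in 96-well plates and compounds tested at five concentrations. GI50: concentration for 50% inhibition of growth.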 Active and inactive are the calls of the source. No stated cut-off is given here; in the data, active = GI50 up to about 1.1 µM and inactive = higher.
How the values were obtained:
Assay in all cases: DTP human tumour cell line panel, 48 h
HL-60 = system: HL-60
A549 = system: A549
OVCAR-5 = system: OVCAR-5
SF-539 = system: SF-539
OVCAR-4 = system: OVCAR-4
TK-10 = system: TK-10
UO-31 = system: UO-31
786-0 = system: 786-0
RPMI-8226 = system: RPMI-8226
SK-OV-3 = system: SK-OV-3
M14 = system: M14
HT-29 = system: HT-29
HOP-92 = system: HOP-92
T47D = system: T47D
MOLT-4 = system: MOLT-4
MDA-MB-435 = system: MDA-MB-435
CAKI-1 = system: CAKI-1
IGROV-1 = system: IGROV-1
SR = system: SR
SNB-19 = system: SNB-19
NCI-H460 = system: NCI-H460
MCF7 = system: MCF7
MDA-MB-231 = system: MDA-MB-231
COLO 205 = system: COLO 205
Malme-3M = system: Malme-3M
HCC 2998 = system: HCC 2998
HCT-15 = system: HCT-15
HOP-62 = system: HOP-62
SF-268 = system: SF-268
SK-MEL-28 = system: SK-MEL-28
EKVX = system: EKVX
CCRF-CEM = system: CCRF-CEM
NCI/ADR-RES = system: NCI/ADR-RES
ACHN = system: ACHN
NCI-H522 = system: NCI-H522
UACC-257 = system: UACC-257
UACC-62 = system: UACC-62
SK-MEL-2 = system: SK-MEL-2
HCT-116 = system: HCT-116
Hs-578T = system: Hs-578T
U-251 = system: U-251
OVCAR-8 = system: OVCAR-8
SN12C = system: SN12C
NCI-H23 = system: NCI-H23
OVCAR-3 = system: OVCAR-3
BT-549 = system: BT-549
DU-145 = system: DU-145
MDA-N = system: MDA-N
K562 = system: K562
NCI-H226 = system: NCI-H226
KM12 = system: KM12
SK-MEL-5 = system: SK-MEL-5
A498 = system: A498
SF-295 = system: SF-295
SNB-75 = system: SNB-75
RXF 393 = system: RXF 393
PC-3 = system: PC-3
LOX IMVI = system: LOX IMVI
SW-620 = system: SW-620

Measured: GI50

CN(C)CC1CCC/C(=C\c2ccc(Cl)c(Cl)c2)C1=O (centres undefined)
active: RPMI-8226 0.205 µM | SR 1.08 µM | CCRF-CEM 0.843 µM
inactive: HL-60 1.97 µM | A549 15.1 µM | OVCAR-5 21 µM | SF-539 5.2 µM | OVCAR-4 3.05 µM | TK-10 3.31 µM | UO-31 2.74 µM | 786-0 1.75 µM | SK-OV-3 6.78 µM | M14 3.83 µM | HT-29 8.45 µM | HOP-92 4.38 µM | T47D 2.31 µM | MOLT-4 1.44 µM | MDA-MB-435 6.38 µM | CAKI-1 2.59 µM | IGROV-1 3.56 µM | SNB-19 7.23 µM | NCI-H460 9.2 µM | MCF7 1.64 µM | MDA-MB-231 4.65 µM | COLO 205 2.67 µM | Malme-3M 4.42 µM | HCC 2998 10.7 µM | HOP-62 9.04 µM | SF-268 4.04 µM | SK-MEL-28 5.14 µM | EKVX 10.8 µM | NCI/ADR-RES 3.05 µM | ACHN 4.18 µM | NCI-H522 2.13 µM | UACC-257 7.71 µM | UACC-62 3.61 µM | SK-MEL-2 6.52 µM | HCT-116 1.97 µM | Hs-578T 2.99 µM | U-251 2.65 µM | OVCAR-8 3.18 µM | SN12C 3.42 µM | NCI-H23 8.45 µM | OVCAR-3 4.31 µM | BT-549 2.33 µM | DU-145 10.9 µM | MDA-N 3.42 µM | K562 1.93 µM | NCI-H226 11.4 µM | KM12 1.84 µM | SK-MEL-5 9.82 µM | A498 13.9 µM | SF-295 12.4 µM | SNB-75 7.41 µM
2.41 µM: HCT-15

CSc1nc(Nc2ccccc2Cl)c2c(N)nn(C)c2n1
inactive: A549 > 100 µM | OVCAR-5 > 100 µM | OVCAR-4 > 100 µM | TK-10 > 100 µM | UO-31 > 100 µM | 786-0 82 µM | RPMI-8226 > 100 µM | SK-OV-3 > 100 µM | M14 > 100 µM | HT-29 > 100 µM | RXF 393 47.2 µM | T47D 18.7 µM | PC-3 > 100 µM | MOLT-4 > 100 µM | MDA-MB-435 > 100 µM | CAKI-1 > 100 µM | LOX IMVI 16 µM | IGROV-1 > 100 µM | SW-620 > 100 µM | SNB-19 > 100 µM | NCI-H460 9.51 µM | MDA-MB-231 28.3 µM | COLO 205 > 100 µM | Malme-3M > 100 µM | HCC 2998 > 100 µM | HOP-62 27 µM | SF-268 77.8 µM | SK-MEL-28 > 100 µM | EKVX 24.4 µM | CCRF-CEM > 100 µM | NCI/ADR-RES 69.5 µM | ACHN 13.1 µM | NCI-H522 75.2 µM | UACC-257 > 100 µM | UACC-62 > 100 µM | SK-MEL-2 > 100 µM | HCT-116 > 100 µM | Hs-578T 17 µM | U-251 > 100 µM | OVCAR-8 16.9 µM | SN12C > 100 µM | NCI-H23 > 100 µM | OVCAR-3 > 100 µM | BT-549 > 100 µM | DU-145 > 100 µM | MDA-N > 100 µM | K562 > 100 µM | NCI-H226 > 100 µM | KM12 > 100 µM | SK-MEL-5 > 100 µM | A498 > 100 µM | SF-295 > 100 µM | SNB-75 > 10 µM
> 100 µM: HCT-15

From ChEMBL document CHEMBL1201862, “PubChem BioAssay data set” (2004)
